Data from patent US20260232684A1, “FLT3 INHIBITORS AND METHODS OF USING THE SAME” (BIOVENTURES, LLC, priority 2023, published 2026).
Entries after “also recorded” stand apart in the source; their conditions may differ.

What was measured:
[1] = system: Molm14 D835Y cells; assay: Cell viability assay (CellTiter GLO), Molm14 D835Y; type: cell-based, human; details: 48 hours
Procedure: (§1) FIG. 1. […] Cells were treated with inhibitor at increasing log doses (0.1 nM-10 μM) for 48 hours. Cell viability was analyzed through CellTiter GLO. […] Cells were exposed to increasing amounts of each drug for 2 hours. GAPDH1 represents loading control for phospho-ERK and ERK blots. GAPDH2 represents loading control for phosphor-STAT5, STAT5, phospho-S6 and S6. Each experiment was completed in triplicate. Representative images are shown.
(§2) FIG. 5. […] Cells were dosed with inhibitor at increasing log doses (0.1 nM-10 μM) for 48 hours. Cell viability was analyzed through CellTiter GLO.
(§3) MV-4-11 and parental Molm-14 cells were a gift from Dr. Scott Kogan (University of California, San Francisco). HL60 and K562 cell lines were obtained from Charles Sawyers. […] Stable Ba/F3 lines were generated by retroviral infection as previously described (5). All cell lines were tested to be mycoplasma free and human cell lines were authenticated through STR profiling completed at the University of California, Berkeley.
(§4) Each triplicate was either dosed with drug or DMSO vehicle control. Drug dosing was completed at log doses ranging from 0.1 nM-10 μM. Cell viability was assessed after 48 hours using CellTiter GLO (Promega). Viability values were normalized to the vehicle control average. Numerical IC50 values were calculated in GraphPad Prism 7.

[2] = system: TKI-naïve primary AML patient samples expressing FLT3-ITD; assay: Short-term liquid culture growth inhibition of primary AML samples; type: cell-based, human; details: 100 nM, up to 7 days, CellTiter GLO, five patient samples
Procedure: FIG. 11. Activity of compounds against primary FLT3-ITD AML samples in short term liquid culture assays. […] Plates were incubated with drug for 0, 1, 2, 3, 5 or 7 days. FLT3 mutation is noted for each patient in parentheses. Cell viability was analyzed through CellTiter GLO.
The compounds were further evaluated for activity against TKI-naïve primary AML patient samples expressing FLT3-ITD in short-term liquid culture growth inhibition assays (24).

[3] = system: Molm14 F691L cells; assay: Cell viability assay (CellTiter GLO), Molm14 F691L; type: cell-based, human; details: 48 hours
Procedure: as §1, §2, §3, §4

[4] = target: FLT3 (Homo sapiens, UniProt P36888); assay: Enzyme kinetic analysis (5-FAM microfluidic assay), FLT3; type: biochemical; details: variable ATP and inhibitor concentrations
Procedure: FIG. 14. Enzyme kinetic analysis of compound 1 and 2 against FLT3 and FLT3 D835Y. The 5-FAM labeled microfluidic assay was utilized and all the activities were measured using Caliper EZ Reader II with a 12-sipper chip. In the presence of variable concentrations of compound 1 or 2, phosphorylation activities of FLT3 and FLT3 D835Y were measured at different level of ATP within certain time durations.
To further assess putative binding modes of compounds 1 and 2, enzyme kinetic analyses were performed.

[5] = system: FLT3 phosphorylation in Molm14 F691L cells; assay: Immunoblotting of phospho-FLT3 and downstream signaling, Molm14 F691L; type: cell-based, human; details: 2 hours, Western blot
Procedure: FIG. 1. Activity of compounds 1 and 2 against parental Molm14 cells harboring secondary kinase domain mutations associated with clinical resistance to active FLT3 TKIs. […] Each point represents the calculated IC50 from an independent experiment completed in triplicate. Cells were treated with inhibitor at increasing log doses (0.1 nM-10 μM) for 48 hours. Cell viability was analyzed through CellTiter GLO. […] Cells were exposed to increasing amounts of each drug for 2 hours. GAPDH1 represents loading control for phospho-ERK and ERK blots. GAPDH2 represents loading control for phosphor-STAT5, STAT5, phospho-S6 and S6. Each experiment was completed in triplicate. Representative images are shown.
Exponentially growing Molm-14 or Ba/F3 cells were plated with RPMI 1640+10% (vol/vol) FBS with the indicated amount of drug. Following 120 minute incubation at 37° C., cells were washed in PBS and lysed in HEPES lysis buffer supplemented with protease and phosphatase inhibitors and processed as previously described (39). Immunoblotting was performed using anti-phospho-tyrosine 4G10 antibody (Millipore Sigma) and anti-FLT3 antibody (Cell Signaling Technology) following immunoprecipitation with anti-FLT3 antibody from 500 μg of total protein. Immunoblotting of ERK, STAT5, S6 and GAPDH was performed with anti-phospho-ERK, anti-ERK, anti-phospho-STAT5, anti-STAT5, anti-phospho-S6, anti-S6 and anti-GAPDH antibody (Cell Signaling Technology)

[6] = system: Molm14 cells (FLT3-ITD-expressing); assay: Cell viability assay (CellTiter GLO), Molm14; type: cell-based, human; details: Molm14, 48 hours
Procedure: as §1, §2, §3, §4

[7] = system: NCI-60 cell line panel (no FLT3 mutation); assay: NCI-60 cell line panel; type: cell-based, human; details: for cytotoxic activity in NCI-60 panel, in words: compound 1: 30 μM single dose, compound 2: 5-dose; for antiproliferative effects in NCI-60 panel, in words: higher concentrations
Procedure: FIG. 12. Activity of compound 1 against the NCI-60 cell line panel. Percentage growth of 1 in the 30 μM single dose experiment within the NCI-60 cell line panel. No cell line within the panel harbors a FLT3 mutation.
FIG. 13. Activity of compound 2 against the NCI-60 cell line panel. Growth inhibition curves of 2 in the 5-dose GIso experiment within the NCI-60 cell line panel. No cell line within the panel harbors a FLT3 mutation.
Myelosuppression represents a critical limitation of current FLT3 TKIs. To assess the selectivity profiles, KINOMEscan screening was performed for 1, 2, and gilteritinib at 20× the Molm14 IC50 concentration of each compound (FIG. 2A).

[8] = system: panel of 468 kinases and kinase mutants; assay: KINOMEscan screening; type: binding; details: for number of kinases bound relative to gilteritinib: 20× the Molm14 IC50 concentration of each compound
[9] = system: FLT3 signaling in Molm14 subcutaneous xenografts; assay: In vivo target inhibition in Molm14 subcutaneous xenografts; parameters: species or system mice; details: for oral bioavailability and pharmacokinetic profile, in words: mice, oral gavage; for inhibition of target and downstream effectors at 4 hour and 8 hours: single dose by oral gavage, all doses, Western blot of tumors
From the text: FIG. 6. Assessment of in vivo target inhibition by compounds 1 and 2 in Molm14 subcutaneous xenografts. Western blot analysis of 1 and 2 in a Molm14 xenograft model.

FLT3, sequence (P36888 27-993): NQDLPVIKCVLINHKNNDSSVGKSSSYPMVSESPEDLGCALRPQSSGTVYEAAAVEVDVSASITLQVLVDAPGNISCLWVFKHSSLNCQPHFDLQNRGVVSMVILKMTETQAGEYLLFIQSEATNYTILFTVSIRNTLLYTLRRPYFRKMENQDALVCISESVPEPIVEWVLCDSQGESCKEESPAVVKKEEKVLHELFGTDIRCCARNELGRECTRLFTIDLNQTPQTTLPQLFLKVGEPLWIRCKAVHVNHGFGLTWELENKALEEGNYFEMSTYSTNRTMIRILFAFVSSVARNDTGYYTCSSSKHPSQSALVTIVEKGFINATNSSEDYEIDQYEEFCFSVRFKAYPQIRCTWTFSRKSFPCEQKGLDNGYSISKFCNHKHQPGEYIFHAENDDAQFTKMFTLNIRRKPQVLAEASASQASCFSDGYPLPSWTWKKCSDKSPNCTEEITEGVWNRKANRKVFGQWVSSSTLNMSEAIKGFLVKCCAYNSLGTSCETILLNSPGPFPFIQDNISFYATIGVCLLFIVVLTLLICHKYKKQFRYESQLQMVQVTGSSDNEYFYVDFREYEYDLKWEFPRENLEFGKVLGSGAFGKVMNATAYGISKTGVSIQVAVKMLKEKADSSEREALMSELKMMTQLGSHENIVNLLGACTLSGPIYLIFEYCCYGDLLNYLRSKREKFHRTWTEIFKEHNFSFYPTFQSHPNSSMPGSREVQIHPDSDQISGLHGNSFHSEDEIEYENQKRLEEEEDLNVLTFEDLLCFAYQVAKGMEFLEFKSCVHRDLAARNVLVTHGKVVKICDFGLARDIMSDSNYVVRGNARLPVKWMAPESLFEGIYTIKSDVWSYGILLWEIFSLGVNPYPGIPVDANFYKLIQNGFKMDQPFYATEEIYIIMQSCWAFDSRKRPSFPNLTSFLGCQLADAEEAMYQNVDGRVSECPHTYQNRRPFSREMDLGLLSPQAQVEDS

Row | SMILES | activity in cell viability assay (IC50, FIG. 1A/5B), in words [1] | activity against primary FLT3-ITD AML samples, in words [2] | activity in cell viability assay (IC50, FIG. 1A/5B), in words [3] | binding mode / inhibitor type from enzyme kinetics [4] | inhibition of FLT3 phosphorylation, in words [5] | activity in cell viability assay (IC50, FIG. 1A/5B), in words [6] | cytotoxic activity in NCI-60 panel, in words [7] | antiproliferative effects in NCI-60 panel, in words [7] | selectivity profile, in words ([8]; 20× the Molm14 IC50 concentration) | number of kinases bound relative to gilteritinib [8] | six kinases bound with greatest affinity ([8]; KINOMEscan analysis) | oral bioavailability and pharmacokinetic profile, in words [9] | inhibition of target and downstream effectors at 4 hour and 8 hours [9] | target inhibition at 24 hours ([9]; single oral dose, 2 mg/kg and 10 mg/kg) | concentration with complete elimination of phosphorylation [5] | concentration with noticeable decrease in phosphorylation [5] | target inhibition at 24 hours ([9]; single oral dose, 10 mg/kg) | kinase signaling at 24 hours ([9]; single oral dose, lower doses)
1 | CN(C)CCNc1ncc(F)c(-c2cnc3cc(-c4cnn(C)c4)ccn23)n1 [Compound 1] | retain activity | activity comparable to quizartinib and gilteritinib in all samples | retain activity | type 1 inhibitor; also recorded: type 1 binding mode | decreased level of activity | activity comparable to quizartinib and superior to gilteritinib | neither compound displayed any significant cytototoxic activity | antiproliferative effects were noted at higher concentrations | remarkable selectivity profile | bound to far fewer kinases than gilteritinib | FLT3, IRAK4, PHGK1, PHGK2, CDK7, TRKA | oral bioavailability and acceptable pharmacokinetic profiles | inhibition of target and downstream effectors at all doses | sufficient for retaining target inhibition for 24 hours |  |  |  | 
2 | CC(C)(C)c1cc(NC(=O)Cc2ccc(-c3cnc4cc(-c5cnn(CCN6CCOCC6)c5)ccc4n3)cc2)no1 [Compound 2, N-(5-(tert-butyl)isoxazol-3-yl)-2-(4-(6-(1-(2-morpholinoethyl)-1H-pyrazol-4-yl)quinoxalin-2-yl)phenyl) acetamide] | retain activity | most potent activity of all the compounds | retain activity | type 2 inhibitor; also recorded: type 2 binding mode | most potent of all the inhibitors evaluated | activity comparable to quizartinib and superior to gilteritinib | neither compound displayed any significant cytototoxic activity | antiproliferative effects were noted at higher concentrations |  | bound to far fewer kinases than gilteritinib |  | oral bioavailability and acceptable pharmacokinetic profiles | inhibition of target and downstream effectors at all doses |  | 50 nM | 10 nM | sustained target inhibition | kinase signaling was restored
